Like-named read-outs stand apart in the source and are kept apart here.
Tests used:
[1] = test system: A549 (epithelial cancer cell line); assay: MTT cell viability assay, A549; type: cell-based; conditions: Homo sapiens, 48 h, read-out: Antiproliferative Activity IC50 ± SEM, A549
Description: (§1) The tested cells were obtained from Shanghai Institute of Biochemistry and Cell Biology of the Chinese Academy of Sciences (Shanghai, China). HeLa and Hep G2 cell lines were cultured in Dulbecco’s modified Eagle’s medium (DMEM; gibco, Life Technologies, Carlsbad, CA, USA) supplemented with 10% fetal bovine serum (FBS; Biological Industries), 100 U/mL penicillin-streptomycin (PS; gibco, Life Technologies, Carlsbad, CA, USA). MCF-7 and A549 cell lines were maintained in RPMI-1640 media (gibco, Life Technologies, Carlsbad, CA, USA) supplemented with 10% FBS and 100 U/mL PS. FaDu cell lines were cultured in minimum essential medium (MEM; Gibco, Life Technologies, Carlsbad, CA, USA) supplemented with 10% FBS and 100 U/mL PS. MCF 10A cell lines were maintained in Mammary MEGM kit (Lonza/Clonetics) supplemented with 100 ng/mL cholera toxin (Sigma, Shanghai, China). Cell lines were grown at 37 °C in a humidified atmosphere of 5% CO2.
(§2) The growth-inhibitory effects against HeLa, Hep G2, MCF-7, FaDu, and A549 cancer cells and normal cell lines MCF 10A were determined by MTT assay. […] Cells were seeded in 96 well plates at a density of 1 × 10^4 cells per well and incubated for 24 h at 37 °C in a humidified atmosphere of 5% CO2. The cells were then incubated with various concentrations of drugs for 48 h in a 5% CO2 incubator at 37 °C. After treatment with 1 mg/mL 3-(4,5-dimethylthiazol-2-yl)-2,5-diphenyltetrazolium bromide (MTT) solution for 4 h, the formazan crystals were dissolved in 100 µL DMSO in each well. Plates were read on a microplate reader (Thermo Varioskan Flash 3001) at 490 nm. The experiment was performed in triplicate. The inhibitory concentration at 50% (IC50) was calculated based on concentration-inhibition relationships via regression using SPSS software (Version 17.0).

[2] = test system: HeLa, Hep G2, MCF-7, FaDu, A549, MCF 10A; assay: MTT cell viability assay, summary over the cell line panel; type: cell-based, human; conditions: 48 h, span over the cell lines, read-out: IC50 range over tested cell lines
Description: as §1, §2

[3] = test system: MCF-7 (breast cancer cell line); assay: MTT cell viability assay, MCF-7; type: cell-based; conditions: Homo sapiens, MCF7, 48 h, read-out: Antiproliferative Activity IC50 ± SEM, MCF-7
Description: as §1, §2

[4] = test system: MCF 10A (normal mammary epithelial cell); assay: MTT cell viability assay, MCF 10A; type: cell-based; conditions: Homo sapiens, 48 h, normal cells, read-out: Antiproliferative Activity IC50 ± SEM, MCF 10A
[5] = test system: FaDu (head and neck squamous carcinoma cell line); assay: MTT cell viability assay, FaDu; type: cell-based, human
Description: as §1, §2

[6] = test system: Hep G2 (hepatocarcinoma cell line); assay: MTT cell viability assay, Hep G2; type: cell-based; conditions: Homo sapiens, HepG2, 48 h, read-out: Antiproliferative Activity IC50 ± SEM, Hep G2
Description: as §1, §2

[7] = test system: HeLa (cervical cancer cell line); assay: MTT cell viability assay, HeLa; type: cell-based; conditions: Homo sapiens, 48 h, read-out: Antiproliferative Activity IC50 ± SEM, HeLa
Description: as §1, §2

[8] = test system: FaDu cells; assay: Flow cytometric analysis of apoptosis by annexin V-FITC/PI staining; type: cell-based, human; conditions: 24 h, control 8.23%
Description: Apoptosis in FaDu cells was evaluated by an annexin V-FITC/PI apoptosis detection kit (Beyotime Institute of Biotechnology, Shanghai, China). Briefly, FaDu cells were treated with various concentrations of compound 8e (2, 5, 10 nM) or DMSO as vehicle control for 24 h at 37 °C; then, the cells were washed twice with cold 1× PBS and centrifuged at 1000 rpm for 5 min. The harvested cells were resuspended gently in 400 µL binding buffer, containing 5 µL annexin V-FITC and 10 µL PI. After incubating for 15 min in the dark at room temperature, the cells were analyzed with flow cytometry (CyFlow® Cube 6, Sysmex). Data were shown as pseudo color graphs and analyzed using FlowJo Software (Tree Star Inc, Ashland, OR).

[9] = test system: FaDu cells; assay: Colony formation assay; type: cell-based; conditions: Homo sapiens, 240 h, 6 nM, 10 days, read-out: colony inhibition rate
Description: FaDu cells were seeded in a 6-well plate with 500 cells per well and incubated for 24 h. Then, the cells were treated with compound 8e at various final concentrations of 0, 0.75, 1.50, 3 nM. Following treatment for 10 days, the cells were washed with PBS twice and fixed with 4% paraformaldehyde for 10 min at room temperature. Then, the cell colonies were visualized by staining with 0.1% crystal violet for 10 min. The image was photographed with Handy camera, and the numbers of cell colonies were analyzed using the open Image J software (Developed by National Institutes of Health). A group of >50 cells was defined as one colony. Triplicate wells were set up for each concentration.

[10] = test system: FaDu cells; assay: Cell cycle analysis by PI staining; type: cell-based, human; conditions: 24 h; for percentage of cells in the S phase: control 28.1%; for population of the G0/G1 phase: control 51.9%
Description: The cell cycle analysis was carried out by a cell cycle and apoptosis analysis kit with a propidium iodide (PI) staining method (Beyotime Institute of Biotechnology, Shanghai, China). Briefly, FaDu cells were incubated with the above-mentioned doses of compound 8e for 24 h; all samples were collected, washed once with cold 1× PBS, and fixed by 70% ice-cold ethanol at 4 °C for 12 h. Then, the fixed cells were washed once with cold 1× PBS and stained with 500 µL 1× PI dye solution (containing 10 µL RNase A) at 37 °C for 30 min in the dark. The red fluorescence was detected using a flow cytometer (CyFlow® Cube 6, Sysmex). The data were analyzed using FlowJo Software (Tree Star Inc, Ashland, OR, USA).

[11] = Homo sapiens, FaDu, 48 h, MTT, 48 h; read-out: Antiproliferative Activity IC50 ± SEM, FaDu
[12] = SI = IC50 (MCF 10A)/IC50 (FaDu)

| SMILES | IC50 [1] | IC50 ([2]; Homo sapiens) | IC50 [3] | IC50 [4] | IC50 [5, 11] | SI: selectivity index [5, 12] | IC50 [6] | IC50 [7] | apoptotic cells (early and late apoptosis ratios) ([8]; 2 nM) | apoptotic cells (early and late apoptosis ratios) ([8]; 5 nM) | apoptotic cells (early and late apoptosis ratios) ([8]; 10 nM) | IC50 [2] | inhibition at 0.006 µM [9] | percentage of cells in the S phase ([10]; 2 nM) | population of the G0/G1 phase ([10]; 2 nM) | percentage of cells in the S phase ([10]; 5 nM) | population of the G0/G1 phase ([10]; 5 nM) | percentage of cells in the S phase ([10]; 10 nM) | population of the G0/G1 phase ([10]; 10 nM) | IC50 ([5]; Homo sapiens, FaDu; MTT, 48 h; read-out: Antiproliferative Activity IC50 ± SEM, FaDu) |
| --- | --- | --- | --- | --- | --- | --- | --- | --- | --- | --- | --- | --- | --- | --- | --- | --- | --- | --- | --- | --- |
| Cc1nc(C)c(CN(CCCCCCCCCCN(Cc2nc(C)c(C)nc2C)Cc2nc(C)c(C)nc2C)Cc2nc(C)c(C)nc2C)nc1C [Compound 6f, N^1,N^1,N^10,N^10-Tetrakis((3,5,6-Trimethylpyrazin-2-yl)Methyl)Decane-1,10-Diamine] | 20.1 ± 0.41 µM | 6.57 to 20.8 µM | 20.83 ± 0.14 µM | 13 ± 0.55 µM | 10.9 ± 0.12 µM | 1.19 | 10.7 ± 0.22 µM | 10.2 ± 0.55 µM | – | – | – | – | – | – | – | – | – | – | – | – |
| Cc1nc(C)c(CN(CCCCCCCCCCCCN(Cc2nc(C)c(C)nc2C)Cc2nc(C)c(C)nc2C)Cc2nc(C)c(C)nc2C)nc1C [Compound 6g, N^1,N^1,N^12,N^12-Tetrakis((3,5,6-Trimethylpyrazin-2-yl)Methyl)Dodecane-1,12-Diamine] | 9.23 ± 0.16 µM | 6.57 to 20.8 µM | 9.83 ± 0.17 µM | 6.57 ± 0.3 µM | 6.8 ± 0.05 µM | 0.97 | 9.62 ± 0.11 µM | 7.89 ± 0.86 µM | – | – | – | – | – | – | – | – | – | – | – | – |
| Cc1nc(C)c(C(=O)NCCCCCCCCCCNC(=O)c2nc(C)c(C)nc2C)nc1C [Compound 8e, N,N′-(Decane-1,10-Diyl)Bis(3,5,6-Trimethylpyrazine-2-Carboxamide)] | 1.05 ± 0.05 µM | – | 0.037 ± 0.001 µM | 0.047 ± 0.008 µM | 0.00136 ± 0.00035 µM | 34.56 | > 20 µM | 1.42 ± 0.71 µM | 34.2% | 57.7% | 79.5% | 0.00136 to 1.42 µM | ~85.4% | 33.7% | 41.8% | 44.3% | 44.2% | 54.7% | 32.4% | – |
| Nc1cccc(C(=O)NCCCCCCCCCCNC(=O)c2cccc(N)c2)c1 [Compound 32e, N,N′-(Decane-1,10-Diyl)bis(3-Aminobenzamide)] | > 20 µM | – | > 20 µM | > 20 µM | > 20 µM | – | > 20 µM | > 20 µM | – | – | – | – | – | – | – | – | – | – | – | – |
| COc1cc(OC)cc(C(=O)NCCCCCCCCCCNC(=O)c2cc(OC)cc(OC)c2)c1 [Compound 33e, N,N′-(Decane-1,10-Diyl)Bis(3,5-Dimethoxybenzamide)] | > 20 µM | – | > 20 µM | > 20 µM | 10.4 ± 0.949 µM | >1.92 | > 20 µM | > 20 µM | – | – | – | – | – | – | – | – | – | – | – | – |
| COc1cc(C(=O)NCCCCCCCCCCNC(=O)c2cc(OC)c(OC)c(OC)c2)cc(OC)c1OC [Compound 34e, N,N′-(Decane-1,10-Diyl)Bis(3,4,5-Trimethoxybenzamide)] | > 20 µM | – | > 20 µM | > 20 µM | 5.85 ± 0.408 µM | >3.42 | > 20 µM | > 20 µM | – | – | – | – | – | – | – | – | – | – | – | – |
| COc1ccc(C(=O)NCCCCCCCCCCNC(=O)c2ccc(OC)c(OC)c2OC)c(OC)c1OC [Compound 35e, N,N′-(Decane-1,10-Diyl)Bis(2,3,4-Trimethoxybenzamide)] | > 20 µM | – | > 20 µM | > 20 µM | > 20 µM | – | > 20 µM | > 20 µM | – | – | – | – | – | – | – | – | – | – | – | – |
| COc1cccc2c1C(=O)c1c(O)c3c(c(O)c1C2=O)C[C@@](O)(C(=O)CO)C[C@@H]3O[C@H]1C[C@H](N)[C@H](O)[C@H](C)O1 [DOX, doxorubicin, reference compound] | > 100 µM | – | 6 ± 0.07 µM | 0.55 ± 0.03 µM | – | – | 28 ± 1.09 µM | 11.4 ± 0.48 µM | – | – | – | – | – | – | – | – | – | – | – | 1.27 ± 0.13 µM |
| Cc1nc(C)c(C)nc1C [TMP, 2,3,5,6-tetramethylpyrazine, reference compound] | > 100 µM | – | > 100 µM | > 100 µM | > 100 µM | – | > 100 µM | > 100 µM | – | – | – | – | – | – | – | – | – | – | – | – |
